Data on 15 compounds can be found in PubChem BioAssay (NCI).

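These data come from cells grown in 96-well plates and exposed to compound for 48 hours at five concentrations. GI50 = concentration required for 50% inhibition of growth. TGI: concentration producing complete growth inhibition.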

Assay in all cases: NCI anticancer screen, dose series, 48 h
Assay [1] has as its system NCI-H460 lung.
For assay [2], the system named is K-562 leukemia.
Assay [3] deals with SW-620 colon.
For assay [4], the system named is LOX IMVI melanoma.
The subject of assay [5] is HCT-15 colon.
The test system of assay [6] is MOLT-4 leukemia.
The subject of assay [7] is DU-145 prostate.
In assay [8] the test system is RXF 393 renal.
For assay [9], the system named is EKVX NSCLC.
In assay [10] the test system is HS 578T breast.

Regarding `CC(C)=CCC(O)C1=CC(=O)c2c(O)ccc(O)c2C1=O` (stereo not drawn), the TGI in [1] was found to be 7.78 µM; in assay [2] it was 0.602 µM; in assay [3], 3.3 µM; in [4], 2.63 µM; in assay [5], 0.526 µM; in assay [6], 0.135 µM. The TGI in assay [7] was 2.5 µM; in [8], 2.11 µM; in assay [9] it was 3.02 µM; in [10] it was 6.2 µM.
For the compound `C[C@]12CCC3c4ccc(O)cc4CCC3C1CC[C@@]2(O)CNC(=O)/C=C/c1ccc(O)c(O)c1` (stereo partly drawn), the GI50 in assay [1] was 4.9 µM; in assay [2], 3.38 µM; in [3], 9.36 µM; in assay [4] it was 2.37 µM; in assay [5], 4.33 µM; in [6], 5.09 µM. Besides, the GI50 was 3.29 µM in [7], 3.29 µM in assay [8], 9.97 µM in assay [9] and 6.24 µM in assay [10]. Further, the TGI in assay [1] amounted to 31.6 µM; in assay [2] it was 12.6 µM; in assay [3], 27.2 µM; in [4], 6.52 µM; in [5], 16.8 µM; in assay [6] it was 31.2 µM. Moreover, the TGI in assay [7] stood at 14.8 µM; in [8], 18.7 µM; in [9], 29.8 µM; in assay [10], 30.8 µM.
As to `O=C1CCCCN1c1ccccc1C#C/C=C\C#Cc1ccccc1C(F)(F)F`, the GI50 is 2.16 µM in assay [1]; 1.46 µM in assay [2]; 2.04 µM in assay [3]; 1.84 µM in assay [4]; 1.53 µM in [5]; 1.59 µM in assay [6]. Moreover, the GI50 was 1.68 µM in [7], 0.526 µM in assay [8], 4.08 µM in [9] and 3.75 µM in [10]. In addition, the TGI was > 50 µM in [1]; 8.65 µM in assay [2]; 46 µM in assay [3]; 8.87 µM in assay [4]; 6.05 µM in assay [5]; 6.96 µM in [6]. The TGI was 8.5 µM in assay [7], 2.73 µM in assay [8], > 50 µM in [9] and > 50 µM in assay [10].
As for `CC(C)[C@@H]1C=C2CC[C@H]3[C@](C)(CN)CCC[C@]3(C)[C@H]2CC1`, the GI50 in assay [1] is 1.8 µM; in assay [2], 1.96 µM; in [3], 1.73 µM; in assay [4] it was 1.52 µM; in assay [5] it was 2.08 µM; in assay [6], 2.35 µM. Further, the GI50 in assay [7] was 2.05 µM; in assay [8], 1.77 µM; in assay [9], 7.32 µM; in assay [10] it was 4.69 µM. Moreover, the TGI in [1] turned out to be 3.34 µM; in assay [2], 4.36 µM; in [3], 3.23 µM; in assay [4], 2.85 µM; in assay [5], 4.94 µM; in [6], 6.03 µM. The TGI came out at 4.08 µM in assay [7], 3.56 µM in assay [8], 23.4 µM in [9] and 20.1 µM in assay [10].
`O=C(/C(=C/c1ccc([N+](=O)[O-])cc1)SCc1ccccc1)c1ccc(Cl)cc1`: the GI50 was 5.34 µM in assay [1]; 2.65 µM in assay [2]; 1.83 µM in assay [3]; 1.69 µM in [4]; 2.14 µM in assay [5]; 2.61 µM in [6]. For the same compound, the GI50 in [7] is 3.6 µM; in [8], 1.68 µM; in [9], 6.77 µM; in assay [10], 2.4 µM. Besides, the TGI was 20.3 µM in [1]; > 100 µM in assay [2]; 4.15 µM in assay [3]; 3.12 µM in assay [4]; 5.41 µM in assay [5]; > 100 µM in [6]. In addition, the TGI in assay [7] worked out at 13.8 µM; in assay [8] it was 3.47 µM; in [9] it was 20.2 µM; in assay [10] it was 8.2 µM.
As for `CCN1C(=O)N(c2ccccc2)C2NC(=S)N(/N=C/C=C/c3ccccc3OC)C21` (stereo not drawn), the GI50 in [1] is 0.111 µM; in assay [2], 0.0662 µM; in [3], 0.125 µM; in assay [4], 0.109 µM; in assay [5] it was 0.102 µM; in assay [6], 0.128 µM. The GI50 in [7] was 0.115 µM; in [8], 0.916 µM; in assay [9] it was 0.174 µM; in assay [10], 0.0858 µM. For the same compound, the TGI in [1] was > 36.2 µM; in assay [2], > 100 µM; in assay [3], > 100 µM; in [4], > 69.5 µM; in assay [5], > 100 µM; in assay [6] it was > 100 µM. Moreover, the TGI in assay [7] was > 34.4 µM; in [8], > 100 µM; in [9] it was > 100 µM; in assay [10], > 100 µM.
With `N#CC(C#N)=C/C=C(\Sc1nc2ccccc2s1)c1ccc(Cl)cc1`, the GI50 in [1] was 18 µM; in [2], 1.45 µM; in assay [3], 0.41 µM; in [4], 2.59 µM; in [5] it was 6.72 µM; in assay [6], 0.565 µM. Besides, the GI50 in assay [7] was 3.98 µM; in [8], 7.59 µM; in assay [9] it was 18.4 µM; in assay [10] it was 6.68 µM. For the same compound, the TGI in assay [1] was > 64.9 µM; in assay [2] it was > 24.6 µM; in [4], > 26.5 µM; in assay [5], > 44.2 µM; in assay [7] it was 17.1 µM; in [8], 25.9 µM. The TGI in [9] turned out to be 40 µM; in assay [10], 27.9 µM.
Take `COc1cc(C2CC(C)(O)Oc3cc4c(cc32)OCO4)cc(OC)c1OC` (stereo not drawn): the TGI in assay [1] is 17.6 µM; in assay [2], > 100 µM; in assay [3], > 100 µM; in assay [4] it was > 100 µM; in [5], > 100 µM; in [6] it was > 100 µM. Further, the TGI in assay [7] was > 100 µM; in assay [8] it was 0.403 µM; in [9], > 100 µM; in assay [10], 0.696 µM.
For the compound `CCCCCCCCCCCCC(O)c1ccc(C#CCCCCCCCCCO)o1` (stereo not drawn), the GI50 was 28.3 µM in assay [1]; 3.73 µM in [2]; 22.7 µM in assay [3]; 18.5 µM in [4]; 18.2 µM in assay [5]; 4.69 µM in assay [6]. Moreover, the GI50 was 18.8 µM in assay [7], 17.9 µM in assay [8], 22.2 µM in assay [9] and 23.8 µM in assay [10]. Also, the TGI in [1] amounted to 75.4 µM; in assay [2] it was 22.6 µM; in assay [3], 41.4 µM; in assay [4], 33.5 µM; in assay [5], 36.8 µM; in assay [6], 26.7 µM. In addition, the TGI in [7] was 33 µM; in assay [8] it was 35.3 µM; in assay [9], 43.1 µM; in assay [10], 47.3 µM.
Regarding `Cc1cc(I)cc(CN(CCCN(C)C)C(C)C)c1O`, the GI50 was 15.9 µM in assay [1]; 16.3 µM in [2]; 17.3 µM in assay [3]; 15 µM in [4]; 17.5 µM in assay [5]; 16.3 µM in assay [6]. Also, the GI50 was 16.1 µM in assay [7], 16 µM in assay [8], 18.3 µM in [9] and 18.1 µM in assay [10]. The TGI is 29.8 µM in [1]; 34.7 µM in assay [2]; 31.6 µM in assay [3]; 28.6 µM in assay [4]; 39.5 µM in assay [5]; 34.7 µM in assay [6]. Besides, the TGI turned out to be 29.6 µM in assay [7], 46.8 µM in assay [8], 42.9 µM in assay [9] and 35.6 µM in [10].
With `CC1SC(c2ccc(F)cc2)N(NC(=O)C(O)c2ccccc2)C1=O` (stereo not drawn), the GI50 in [1], in assay [2], in assay [3], in assay [4], in assay [5] and in assay [6] was > 100 µM each time. Further, the GI50 in assay [7], in assay [8], in assay [9] and in assay [10] was > 100 µM in each case. Also, the TGI in assay [1], in [2], in [3], in assay [4], in assay [5] and in [6] was > 100 µM throughout. Besides, the TGI in assay [7], in [8], in assay [9] and in [10] was > 100 µM in each case.
With `Cc1csc(-c2nnc(Nc3ccc(Oc4ncccc4-c4ccnc(N)n4)cc3)c3ccccc23)c1`, the GI50 in assay [1] is 0.0214 µM; in [2] it was 3.15 µM; in assay [3], 0.651 µM; in assay [4] it was 0.433 µM; in [5], 1.78 µM; in [6], 3.34 µM. Besides, the GI50 is 4.61 µM in assay [7], 1.51 µM in [8], > 100 µM in [9] and > 100 µM in [10]. The TGI in assay [1], in [2], in assay [3], in [4], in [5] and in [6] was > 100 µM in each case. The TGI in assay [7], in [8], in assay [9] and in assay [10] was > 100 µM each time.
Regarding `COc1ccc2nc3cc(Cl)ccc3c(NCCNCC(C)O)c2c1` (stereo not drawn), the GI50 in [1] was 0.668 µM; in [2] it was 1.28 µM; in assay [3] it was 0.818 µM; in [4], 1.15 µM; in assay [5], 1.21 µM; in [6], 0.512 µM. In addition, the GI50 is 2.12 µM in [7], 1.61 µM in assay [8], 2.6 µM in assay [9] and 4.47 µM in assay [10]. For the same compound, the TGI in assay [1] came out at 2.99 µM; in [2], 10 µM; in assay [3] it was 10.3 µM; in [4], 2.66 µM; in assay [5], 4.36 µM; in [6], 11.1 µM. In addition, the TGI in [7] was found to be 8.57 µM; in assay [8], 3.37 µM; in [9], 10.7 µM; in [10], 21.3 µM.
Consider `CN1CC[C@@H](NC(=O)Nc2ccc(C#N)cc2)C[C@@H]1c1nc2ccccc2[nH]1`, for which the GI50 in assay [1] was > 100 µM; in assay [2] it was > 100 µM; in assay [3], > 100 µM; in [4], > 42.5 µM; in assay [5], > 100 µM; in assay [6], 55.6 µM. For the same compound, the GI50 in [7] was > 100 µM; in assay [8], 40.5 µM; in assay [9], > 100 µM; in assay [10], > 100 µM. Also, the TGI in [1] was > 100 µM; in [2] it was > 100 µM; in assay [3] it was > 100 µM; in assay [4], > 59.5 µM; in assay [5] it was > 100 µM; in [6], > 100 µM. The TGI in assay [7], in assay [8], in assay [9] and in [10] was > 100 µM in each case.
With `Nc1n[nH]c2cc(F)c([C@@H]3Nc4ccc5[nH]ncc5c4[C@H]4C5CCC(C5)[C@@H]34)cc12` (stereo partly drawn), the GI50 was 0.177 µM in assay [1]; 0.103 µM in assay [2]; 0.188 µM in assay [3]; 0.158 µM in assay [4]; 0.159 µM in assay [5]; 0.207 µM in assay [6]. Further, the GI50 in [7] is 0.205 µM; in assay [8] it was 0.124 µM; in assay [9], 0.237 µM; in assay [10] it was 0.173 µM. In addition, the TGI in assay [1] is 5.86 µM; in [2], > 50 µM; in [3], > 25 µM; in assay [4], 6.47 µM; in assay [5] it was 9.04 µM; in assay [6], > 50 µM. Also, the TGI in [7] is 8.75 µM; in assay [8] it was 2.52 µM; in [9], 49.4 µM; in [10], 11.6 µM.
